# Assay results taken from US20260053834A1, “COVALENT MODIFIERS OF AKT1 AND USES THEREOF” (Terremoto Biosciences, Inc., priority 2023, published 2026).
# Assays:
# [1] = system: LAPC4 prostate cancer cells, which express the AKT1 E17K allele; assay: Antiproliferative effects in LAPC4 cells (CellTiter Glo, 72 h); format: cell-based; settings: Homo sapiens, LAPC4, 72 h, read-out: LAPC4 proliferation IC50: GeoMean IC50
# Procedure: Antiproliferative effects in LAPC4 cells. LAPC4 prostate cancer cells (Klein, K. A. et al. Nat Med 1997, 3, 402-408), which express the AKT1 E17K allele, were grown in IMDM media (Hyclone) supplemented with 12% FBS+1% P/S. To assess compound effects on growth, 1,000 cells/well were seeded in 384 well assay plates, incubated with compound dilutions dissolved in DMSO. After 72 h, intracellular ATP content was assessed with CellTiter Glo reagent (Promega) according to the manufacturer's instructions. IC50 values were calculated by fitting luminescence values to a log(inhibitor) vs. response Hill equation.
# AKT1 E17K = biological target: T1, AKT1 E17K (Homo sapiens, UniProt P31749, E17K); assay: Live cell target engagement by NanoBRET competitive probe displacement, AKT1 E17K; format: binding; settings: transfected HEK293 cells, 2 h at 37° C., read-out: AKT1 E17K IC50: GeoMean IC50
# T1 construct: expressed in transfected cells; host or cells: HEK293
# Procedure: (§1) Determining live cell AKT1 E17K, AKT1 WT, and AKT2 target engagement by NanoBRET competitive probe displacement. Live cell target engagement assays were performed as described (Vasta, J. D. et al. Cell Chem Biol 2018, 25(11), 206-214). Briefly, HEK293 cells were transfected with plasmids encoding kinase-NanoLuciferase fusion proteins overnight. Cells were then treated with serial dilutions of compound and an ˜EC50 concentration of fluorescently-tagged ATP-competitive tracer (Promega). After incubation for 2 h at 37° C., luciferase substrate and extracellular luciferase inhibitor were added to all wells, and luminescent intensity at 460 nm and 600 nm were measured on a multimode plate-reader. The ratio of E600/E460 was calculated to give the tracer engagement signal (BRET). IC50 values were calculated by fitting BRET values to a log(inhibitor) vs. response Hill equation.
# AKT1 WT = biological target: T2, AKT1 WT (Homo sapiens, UniProt P31749); assay: Live cell target engagement by NanoBRET competitive probe displacement, AKT1 WT; format: binding; settings: transfected HEK293 cells, 2 h at 37° C., read-out: AKT1 WT IC50: GeoMean IC50
# T2 construct: expressed in transfected cells; host or cells: HEK293
# Procedure: as §1
# AKT2 = biological target: T3, AKT2 (Homo sapiens, UniProt P31751); assay: Live cell target engagement by NanoBRET competitive probe displacement, AKT2; format: binding; settings: transfected HEK293 cells, 2 h at 37° C., read-out: AKT2 IC50: GeoMean IC50
# T3 construct: expressed in transfected cells; host or cells: HEK293
# Procedure: as §1
# T3 sequence (P31751 whole entry): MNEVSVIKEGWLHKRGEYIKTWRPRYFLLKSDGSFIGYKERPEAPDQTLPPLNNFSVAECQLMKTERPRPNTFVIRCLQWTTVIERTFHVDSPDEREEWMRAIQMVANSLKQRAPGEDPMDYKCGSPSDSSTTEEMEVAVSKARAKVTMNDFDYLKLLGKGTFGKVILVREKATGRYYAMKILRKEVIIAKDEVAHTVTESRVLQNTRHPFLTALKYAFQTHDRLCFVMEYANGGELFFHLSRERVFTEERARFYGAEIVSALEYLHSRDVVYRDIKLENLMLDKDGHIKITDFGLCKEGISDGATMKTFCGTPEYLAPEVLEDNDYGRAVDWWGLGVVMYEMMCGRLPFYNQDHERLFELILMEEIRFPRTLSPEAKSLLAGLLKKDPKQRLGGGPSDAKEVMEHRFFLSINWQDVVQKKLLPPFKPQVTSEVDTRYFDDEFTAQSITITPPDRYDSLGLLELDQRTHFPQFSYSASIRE
# T2 sequence (P31749 whole entry): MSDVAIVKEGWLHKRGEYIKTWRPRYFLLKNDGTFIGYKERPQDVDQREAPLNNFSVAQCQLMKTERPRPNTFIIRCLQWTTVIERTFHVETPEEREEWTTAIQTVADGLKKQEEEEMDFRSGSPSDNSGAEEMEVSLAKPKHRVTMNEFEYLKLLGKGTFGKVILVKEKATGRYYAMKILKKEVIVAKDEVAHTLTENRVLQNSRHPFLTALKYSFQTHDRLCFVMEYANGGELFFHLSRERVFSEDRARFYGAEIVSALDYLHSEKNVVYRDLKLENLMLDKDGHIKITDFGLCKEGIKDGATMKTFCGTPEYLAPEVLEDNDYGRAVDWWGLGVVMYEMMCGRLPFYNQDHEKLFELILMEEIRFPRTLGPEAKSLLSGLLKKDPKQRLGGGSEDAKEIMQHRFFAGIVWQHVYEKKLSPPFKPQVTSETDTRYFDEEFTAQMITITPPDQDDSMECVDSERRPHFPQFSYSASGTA
# T1 sequence (P31749 whole entry E17K): as the sequence (P31749 whole entry) above, with E17K counted along it
Compound,IC50 [1],IC50 (AKT1 E17K),IC50 (AKT1 WT),IC50 (AKT2)
"CN(C)S(=O)(=O)Nc1ccc(C(=O)N[C@H]2CCc3cc(-n4c(-c5cccnc5N)nc5ccc(-n6cccn6)nc54)ccc32)cc1C=O [Example 154, N-[(1S)-5-[2-(2-aminopyridin-3-yl)-5-(pyrazol-1-yl)imidazo[4,5-b]pyridin-3-yl]-2,3-dihydro-1H-inden-1-yl]-4-[(dimethylsulfamoyl)amino]-3-formylbenzamide]",10 to 100 nM,< 10 nM,10 to 100 nM,100 to 2000 nM
"C#Cc1c(C(=O)N[C@H]2CCc3cc(-n4c(-c5cccnc5N)nc5ccc(-n6cccn6)nc54)ccc32)ccc(O)c1C=O [Example 112, N-[(1S)-5-[2-(2-aminopyridin-3-yl)-5-(pyrazol-1-yl)imidazo[4,5-b]pyridin-3-yl]-2,3-dihydro-1H-inden-1-yl]-2-ethynyl-3-formyl-4-hydroxybenzamide]",≥ 2000 nM,10 to 100 nM,10 to 100 nM,100 to 2000 nM
"Nc1ncccc1-c1nc2ccc(-c3ccccc3)nc2n1-c1ccc2c(c1)CC[C@@H]2NC(=O)c1ccc(NC(=O)C(F)F)c(C=O)c1 [Example 52, N-[(1S)-5-[2-(2-aminopyridin-3-yl)-5-phenylimidazo[4,5-b]pyridin-3-yl]-2,3-dihydro-1H-inden-1-yl]-4-(2,2-difluoroacetamido)-3-formylbenzamide]",10 to 100 nM,< 10 nM,< 10 nM,10 to 100 nM
"COc1cc(C(=O)N[C@H]2CCc3cc(-n4c(-c5cccnc5N)nc5ccc(-n6cccn6)nc54)ccc32)cc(C=O)c1O [Example 182, N-[(1S)-5-[2-(2-aminopyridin-3-yl)-5-(pyrazol-1-yl)imidazo[4,5-b]pyridin-3-yl]-2,3-dihydro-1H-inden-1-yl]-3-formyl-4-hydroxy-5-methoxybenzamide]",100 to 2000 nM,10 to 100 nM,10 to 100 nM,100 to 2000 nM
"Nc1ncccc1-c1nc2ccc(-n3cncn3)nc2n1-c1ccc2c(c1)CC[C@@H]2NC(=O)c1ccc(O)c(C=O)c1 [Example 97, N-[(1S)-5-[2-(2-aminopyridin-3-yl)-5-(1,2,4-triazol-1-yl)imidazo[4,5-b]pyridin-3-yl]-2,3-dihydro-1H-inden-1-yl]-3-formyl-4-hydroxybenzamide]",100 to 2000 nM,10 to 100 nM,100 to 2000 nM,100 to 2000 nM
"Nc1ncccc1-c1nc2ccc(-c3ccc(F)cc3)nc2n1-c1ccc2c(c1)CC[C@@H]2NC(=O)c1ccc(O)c(C=O)c1 [Example 20, (S)—N-(5-(2-(2-aminopyridin-3-yl)-5-(4-fluorophenyl)-3H-imidazo[4,5-b]pyridin-3-yl)-2,3-dihydro-1H-inden-1-yl)-3-formyl-4-hydroxybenzamide]",10 to 100 nM,10 to 100 nM,10 to 100 nM,100 to 2000 nM
"Cc1cc(O)c(C=O)cc1C(=O)N[C@H]1CCc2cc(-n3c(-c4cccnc4N)nc4ccc(-n5cccn5)nc43)ccc21 [Example 149, N-[(1S)-5-[2-(2-aminopyridin-3-yl)-5-(pyrazol-1-yl)imidazo[4,5-b]pyridin-3-yl]-2,3-dihydro-1H-inden-1-yl]-5-formyl-4-hydroxy-2-methylbenzamide]",100 to 2000 nM,10 to 100 nM,100 to 2000 nM,100 to 2000 nM
"Cn1cc(-c2ccc3nc(-c4cccnc4N)n(-c4ccc5c(c4)CC[C@@H]5NC(=O)c4ccc(O)c(C=O)c4)c3n2)nn1 [Example 72, (S)—N-(5-(2-(2-aminopyridin-3-yl)-5-(1-methyl-1H-1,2,3-triazol-4-yl)-3H-imidazo[4,5-b]pyridin-3-yl)-2,3-dihydro-1H-inden-1-yl)-3-formyl-4-hydroxybenzamide]",100 to 2000 nM,10 to 100 nM,10 to 100 nM,100 to 2000 nM
"COc1cc(O)c(C=O)cc1C(=O)N[C@H]1CCc2cc(-n3c(-c4cccnc4N)nc4ccc(-c5ccccc5)nc43)ccc21 [Example 17, N-[(1S)-5-[2-(2-aminopyridin-3-yl)-5-phenylimidazo[4,5-b]pyridin-3-yl]-2,3-dihydro-1H-inden-1-yl]-5-formyl-4-hydroxy-2-methoxybenzamide]",100 to 2000 nM,100 to 2000 nM,100 to 2000 nM,100 to 2000 nM
"Nc1ncccc1-c1nc2c(F)cc(-n3cccn3)nc2n1-c1ccc2c(c1)CC[C@@H]2NC(=O)c1ccc(O)c(C=O)c1 [Example 213, N-[(1S)-5-[2-(2-aminopyridin-3-yl)-7-fluoro-5-(pyrazol-1-yl)imidazo[4,5-b]pyridin-3-yl]-2,3-dihydro-1H-inden-1-yl]-3-formyl-4-hydroxybenzamide]",100 to 2000 nM,10 to 100 nM,10 to 100 nM,100 to 2000 nM
"Cc1cc(-n2cccn2)nc2c1nc(-c1cccnc1N)n2-c1ccc2c(c1)CC[C@@H]2NC(=O)c1cc(C=O)c(O)cc1F [Example 202, (S)—N-(5-(2-(2-aminopyridin-3-yl)-7-methyl-5-(1H-pyrazol-1-yl)-3H-imidazo[4,5-b]pyridin-3-yl)-2,3-dihydro-1H-inden-1-yl)-2-fluoro-5-formyl-4-hydroxybenzamide]",10 to 100 nM,10 to 100 nM,10 to 100 nM,10 to 100 nM
"Nc1ncccc1-c1nc2ccc(-n3cccn3)nc2n1-c1ccc2c(c1)CC[C@@H]2NC(=O)c1cccc(C=O)c1 [Example 142, (S)—N-(5-(2-(2-aminopyridin-3-yl)-5-(1H-pyrazol-1-yl)-3H-imidazo[4,5-b]pyridin-3-yl)-2,3-dihydro-1H-inden-1-yl)-3-formylbenzamide]",100 to 2000 nM,10 to 100 nM,< 10 nM,10 to 100 nM
"COCc1ccn(-c2ccc3nc(-c4cccnc4N)n(-c4ccc5c(c4)CC[C@@H]5NC(=O)c4ccc(O)c(C=O)c4)c3n2)n1 [Example 126, N-[(1S)-5-[2-(2-aminopyridin-3-yl)-5-[3-(methoxymethyl)pyrazol-1-yl]imidazo[4,5-b]pyridin-3-yl]-2,3-dihydro-1H-inden-1-yl]-3-formyl-4-hydroxybenzamide]",10 to 100 nM,< 10 nM,10 to 100 nM,100 to 2000 nM
"Cc1cc(-n2nccn2)nc2c1nc(-c1cccnc1N)n2-c1ccc2c(c1)CC[C@@H]2NC(=O)c1cc(C=O)c(O)c(F)c1F [Example 227, N-[(1S)-5-[2-(2-aminopyridin-3-yl)-7-methyl-5-(1,2,3-triazol-2-yl)imidazo[4,5-b]pyridin-3-yl]-2,3-dihydro-1H-inden-1-yl]-2,3-difluoro-5-formyl-4-hydroxybenzamide]",10 to 100 nM,10 to 100 nM,10 to 100 nM,100 to 2000 nM
"Cc1cc(-n2ccc(F)n2)nc2c1nc(-c1cccnc1N)n2-c1ccc2c(c1)CC[C@@H]2NC(=O)c1cc(C=O)c(O)c(F)c1F [Example 199, N-[(1S)-5-[2-(2-aminopyridin-3-yl)-5-(3-fluoropyrazol-1-yl)-7-methylimidazo[4,5-b]pyridin-3-yl]-2,3-dihydro-1H-inden-1-yl]-2,3-difluoro-5-formyl-4-hydroxybenzamide]",100 to 2000 nM,< 10 nM,< 10 nM,100 to 2000 nM
"Nc1ncccc1-c1nc2ccc(-c3ncco3)nc2n1-c1ccc2c(c1)CC[C@@H]2NC(=O)c1ccc(O)c(C=O)c1 [Example 121, (S)—N-(5-(2-(2-aminopyridin-3-yl)-5-(oxazol-2-yl)-3H-imidazo[4,5-b]pyridin-3-yl)-2,3-dihydro-1H-inden-1-yl)-3-formyl-4-hydroxybenzamide]",10 to 100 nM,< 10 nM,10 to 100 nM,100 to 2000 nM
"CS(=O)(=O)Nc1cc2ncn([C@H]3CCc4cc(-n5c(-c6cccnc6N)nc6ccc(-n7cccn7)nc65)ccc43)c(=O)c2cc1C=O [Example 244, N-{3-[(1S)-5-[2-(2-aminopyridin-3-yl)-5-(pyrazol-1-yl)imidazo[4,5-b]pyridin-3-yl]-2,3-dihydro-1H-inden-1-yl]-6-formyl-4-oxoquinazolin-7-yl}methanesulfonamide]",100 to 2000 nM,,,
"Cc1nc2cc(O)c(C=O)cc2c(=O)n1[C@H]1CCc2cc(-n3c(-c4cccnc4N)nc4ccc(-n5cccn5)nc43)ccc21 [Example 249, 3-[(1S)-5-[2-(2-aminopyridin-3-yl)-5-(pyrazol-1-yl)imidazo[4,5-b]pyridin-3-yl]-2,3-dihydro-1H-inden-1-yl]-7-hydroxy-2-methyl-4-oxoquinazoline-6-carbaldehyde]",≥ 2000 nM,,,
"Nc1ncccc1-c1nc2ccc(-n3cccn3)nc2n1-c1ccc2c(c1)CC[C@@H]2n1cnc2c(F)c(O)c(C=O)cc2c1=O [Example 243, 3-[(1S)-5-[2-(2-aminopyridin-3-yl)-5-(pyrazol-1-yl)imidazo[4,5-b]pyridin-3-yl]-2,3-dihydro-1H-inden-1-yl]-8-fluoro-7-hydroxy-4-oxoquinazoline-6-carbaldehyde]",100 to 2000 nM,,,
